The NIST ThermoML archive (doi:10.1016/j.jct.2009.12.002)

Experiment: molar heat capacity at constant pressure
Details: Liquid

CC(C)CCCCCCCOC(=O)c1ccccc1C(=O)OCCCCCCCC(C)C
molar heat capacity at constant pressure [J/K/mol]
Details	Flow calorimetry	Numerical integration with Cp at 1 atm and U at elevated pressures
293.15 K, 100 kPa	754.86	755.75
293.15 K, 10000 kPa	–	754.86
293.15 K, 20000 kPa	–	753.52
293.15 K, 30000 kPa	–	753.07
293.15 K, 40000 kPa	–	752.18
293.15 K, 50000 kPa	–	751.73
293.15 K, 60000 kPa	–	751.29
293.15 K, 70000 kPa	–	750.84
293.15 K, 80000 kPa	–	750.84
293.15 K, 90000 kPa	–	750.39
293.15 K, 100000 kPa	–	750.39
293.15 K, 110000 kPa	–	749.95
293.15 K, 120000 kPa	–	749.95
293.15 K, 130000 kPa	–	749.95
293.15 K, 140000 kPa	–	749.95
303.15 K, 100 kPa	–	771.39
303.15 K, 10000 kPa	–	770.05
303.15 K, 20000 kPa	–	768.71
303.15 K, 30000 kPa	–	767.81
303.15 K, 40000 kPa	–	767.37
303.15 K, 50000 kPa	–	766.92
303.15 K, 60000 kPa	–	766.47
303.15 K, 70000 kPa	–	766.03
303.15 K, 80000 kPa	–	765.58
303.15 K, 90000 kPa	–	765.58
303.15 K, 100000 kPa	–	765.13
303.15 K, 110000 kPa	–	765.13
303.15 K, 120000 kPa	–	765.13
303.15 K, 130000 kPa	–	765.13
303.15 K, 140000 kPa	–	765.13
313.15 K, 100 kPa	788.81	786.57
313.15 K, 10000 kPa	–	785.23
313.15 K, 20000 kPa	–	784.34
313.15 K, 30000 kPa	–	783.45
313.15 K, 40000 kPa	–	782.55
313.15 K, 50000 kPa	–	782.11
313.15 K, 60000 kPa	–	781.66
313.15 K, 70000 kPa	–	781.21
313.15 K, 80000 kPa	–	781.21
313.15 K, 90000 kPa	–	780.77
313.15 K, 100000 kPa	–	780.77
313.15 K, 110000 kPa	–	780.77
313.15 K, 120000 kPa	–	780.77
313.15 K, 130000 kPa	–	780.32
313.15 K, 140000 kPa	–	780.32
323.15 K, 100 kPa	–	802.65
323.15 K, 10000 kPa	–	801.31
323.15 K, 20000 kPa	–	799.97
323.15 K, 30000 kPa	–	799.08
323.15 K, 40000 kPa	–	798.63
323.15 K, 50000 kPa	–	797.74
323.15 K, 60000 kPa	–	797.29
323.15 K, 70000 kPa	–	797.29
323.15 K, 80000 kPa	–	796.85
323.15 K, 90000 kPa	–	796.4
323.15 K, 100000 kPa	–	796.4
323.15 K, 110000 kPa	–	796.4
323.15 K, 120000 kPa	–	796.4
323.15 K, 130000 kPa	–	796.4
323.15 K, 140000 kPa	–	796.4
333.15 K, 100 kPa	816.5	818.73
333.15 K, 10000 kPa	–	817.39
333.15 K, 20000 kPa	–	816.05
333.15 K, 30000 kPa	–	815.16
333.15 K, 40000 kPa	–	814.27
333.15 K, 50000 kPa	–	813.82
333.15 K, 60000 kPa	–	813.37
333.15 K, 70000 kPa	–	812.93
333.15 K, 80000 kPa	–	812.93
333.15 K, 90000 kPa	–	812.48
333.15 K, 100000 kPa	–	812.48
333.15 K, 110000 kPa	–	812.48
333.15 K, 120000 kPa	–	812.48
333.15 K, 130000 kPa	–	812.48
333.15 K, 140000 kPa	–	812.48
343.15 K, 100 kPa	–	835.26
343.15 K, 10000 kPa	–	833.92
343.15 K, 20000 kPa	–	832.58
343.15 K, 30000 kPa	–	831.69
343.15 K, 40000 kPa	–	830.79
343.15 K, 50000 kPa	–	830.35
343.15 K, 60000 kPa	–	829.9
343.15 K, 70000 kPa	–	829.45
343.15 K, 80000 kPa	–	829.01
343.15 K, 90000 kPa	–	829.01
343.15 K, 100000 kPa	–	829.01
343.15 K, 110000 kPa	–	829.01
343.15 K, 120000 kPa	–	829.01
343.15 K, 130000 kPa	–	828.56
343.15 K, 140000 kPa	–	829.01
353.15 K, 100 kPa	852.23	852.23
353.15 K, 10000 kPa	–	850.45
353.15 K, 20000 kPa	–	849.11
353.15 K, 30000 kPa	–	848.21
353.15 K, 40000 kPa	–	847.32
353.15 K, 50000 kPa	–	846.87
353.15 K, 60000 kPa	–	846.43
353.15 K, 70000 kPa	–	845.98
353.15 K, 80000 kPa	–	845.98
353.15 K, 90000 kPa	–	845.53
353.15 K, 100000 kPa	–	845.53
353.15 K, 110000 kPa	–	845.53
353.15 K, 120000 kPa	–	845.53
353.15 K, 130000 kPa	–	845.53
353.15 K, 140000 kPa	–	845.53
363.15 K, 100 kPa	–	869.21
363.15 K, 10000 kPa	–	867.42
363.15 K, 20000 kPa	–	866.08
363.15 K, 30000 kPa	–	865.19
363.15 K, 40000 kPa	–	864.29
363.15 K, 50000 kPa	–	863.85
363.15 K, 60000 kPa	–	863.4
363.15 K, 70000 kPa	–	862.95
363.15 K, 80000 kPa	–	862.95
363.15 K, 90000 kPa	–	862.95
363.15 K, 100000 kPa	–	862.51
363.15 K, 110000 kPa	–	862.51
363.15 K, 120000 kPa	–	862.51
363.15 K, 130000 kPa	–	862.51
363.15 K, 140000 kPa	–	862.51
373.15 K, 100 kPa	893.77	886.62
373.15 K, 10000 kPa	–	884.84
373.15 K, 20000 kPa	–	883.5
373.15 K, 30000 kPa	–	882.6
373.15 K, 40000 kPa	–	881.71
373.15 K, 50000 kPa	–	881.26
373.15 K, 60000 kPa	–	880.82
373.15 K, 70000 kPa	–	880.37
373.15 K, 80000 kPa	–	880.37
373.15 K, 90000 kPa	–	879.93
373.15 K, 100000 kPa	–	879.93
373.15 K, 110000 kPa	–	879.93
373.15 K, 120000 kPa	–	879.93
373.15 K, 130000 kPa	–	879.93
373.15 K, 140000 kPa	–	879.93
383.15 K, 100 kPa	–	904.49
383.15 K, 10000 kPa	–	902.7
383.15 K, 20000 kPa	–	901.36
383.15 K, 30000 kPa	–	900.02
383.15 K, 40000 kPa	–	899.58
383.15 K, 50000 kPa	–	898.68
383.15 K, 60000 kPa	–	898.24
383.15 K, 70000 kPa	–	898.24
383.15 K, 80000 kPa	–	897.79
383.15 K, 90000 kPa	–	897.79
383.15 K, 100000 kPa	–	897.79
383.15 K, 110000 kPa	–	897.79
383.15 K, 120000 kPa	–	897.79
383.15 K, 130000 kPa	–	897.79
383.15 K, 140000 kPa	–	897.79
393.15 K, 100 kPa	914.32	922.8
393.15 K, 10000 kPa	–	920.57
393.15 K, 20000 kPa	–	919.23
393.15 K, 30000 kPa	–	918.34
393.15 K, 40000 kPa	–	917.44
393.15 K, 50000 kPa	–	917
393.15 K, 60000 kPa	–	916.55
393.15 K, 70000 kPa	–	916.1
393.15 K, 80000 kPa	–	916.1
393.15 K, 90000 kPa	–	915.66
393.15 K, 100000 kPa	–	915.66
393.15 K, 110000 kPa	–	915.66
393.15 K, 120000 kPa	–	915.66
393.15 K, 130000 kPa	–	915.66
393.15 K, 140000 kPa	–	916.1
403.15 K, 100 kPa	–	941.12
403.15 K, 10000 kPa	–	938.88
403.15 K, 20000 kPa	–	937.54
403.15 K, 30000 kPa	–	936.65
403.15 K, 40000 kPa	–	935.76
403.15 K, 50000 kPa	–	934.86
403.15 K, 60000 kPa	–	934.86
403.15 K, 70000 kPa	–	934.42
403.15 K, 80000 kPa	–	934.42
403.15 K, 90000 kPa	–	933.97
403.15 K, 100000 kPa	–	933.97
403.15 K, 110000 kPa	–	933.97
403.15 K, 120000 kPa	–	933.97
403.15 K, 130000 kPa	–	934.42
403.15 K, 140000 kPa	–	934.42
413.15 K, 100 kPa	–	959.88
413.15 K, 10000 kPa	–	957.64
413.15 K, 20000 kPa	–	956.3
413.15 K, 30000 kPa	–	954.96
413.15 K, 40000 kPa	–	954.07
413.15 K, 50000 kPa	–	953.62
413.15 K, 60000 kPa	–	953.18
413.15 K, 70000 kPa	–	953.18
413.15 K, 80000 kPa	–	952.73
413.15 K, 90000 kPa	–	952.73
413.15 K, 100000 kPa	–	952.73
413.15 K, 110000 kPa	–	952.73
413.15 K, 120000 kPa	–	952.73
413.15 K, 130000 kPa	–	953.18
413.15 K, 140000 kPa	–	953.18
423.15 K, 100 kPa	981.32	–
